How the values were obtained:
[1] = Solubility of solid organic sunscreens in solubilizers (25° C.); assay type: physicochemical; settings: for Solubility of MBC in the solvent: solute 4-Methylbenzylidene camphor (MBC); for Solubility of E-517 (Avobenzone) in the solvent: solute Avobenzone (E-517); for Solubility of BEMT in the solvent: solute Bis-ethylhexyloxyphenol methoxyphenyl triazine (BEMT); for Solubility of EHT in the solvent: solute Ethylhexyl triazone (EHT); for Solubility of E-567 (Oxybenzone) in the solvent: solute Oxybenzone (E-567)
Procedure: Upon cooling to 25° C., a few seed crystals (<10 mg) of the sunscreen were added to hasten equilibration. The solutions were stored in the dark in a constant temperature chamber at 25° C. Each was sampled weekly, and the ca. 0.1 g sample was filtered through a 0.45μ syringe filter and analyzed by GLC or HPLC, calibrated using standard solutions, until the value for wt. % of solute was constant.

[2] = UV absorption spectra of sunscreens in selected solvents; assay type: physicochemical; design: λmax of E-517 / λmax of E-567 / λmax of BEMT / λmax of EHT: unit not given here; settings: for ε of BEMT at λmax / λmax of BEMT: 10 mg/L BEMT in the solvent; for ε of E-517 at λmax / λmax of E-517: 10 mg/L E-517 in the solvent; for ε of E-567 at λmax / λmax of E-567: 10 mg/L E-567 in the solvent; for ε of EHT at λmax / λmax of EHT: 10 mg/L EHT in the solvent; for ε of MBC at λmax / λmax of MBC: 10 mg/L MBC in the solvent
Procedure: Solutions containing 10 mg/L of sunscreen in selected solvents were prepared, and their UV spectra were measured using a Cary 1E UV-Visible spectrophotometer. […] They are also higher in 2-phenylethyl cyclohexanoate for Escalol® 517 and Escalol® 567.

[3] = second (shorter wavelength) band

Compound	Solubility of MBC in the solvent [1] [wt. %]	Solubility of E-517 (Avobenzone) in the solvent [1] [wt. %]	Solubility of BEMT in the solvent [1] [wt. %]	Solubility of EHT in the solvent [1] [wt. %]	Solubility of E-567 (Oxybenzone) in the solvent [1] [wt. %]	ε of BEMT at λmax ([2]; first (longer wavelength) band)	λmax of BEMT ([2]; first (longer wavelength) band)	ε of E-517 at λmax ([2]; first (longer wavelength) band)	λmax of E-517 ([2]; first (longer wavelength) band)	ε of E-567 at λmax ([2]; first (longer wavelength) band)	λmax of E-567 ([2]; first (longer wavelength) band)	ε of EHT at λmax [2, 3]	λmax of EHT [2, 3]	ε of MBC at λmax [2, 3]	λmax of MBC [2, 3] [nm]	ε of BEMT at λmax [2, 3]	λmax of BEMT [2, 3]	ε of E-567 at λmax [2, 3]	λmax of E-567 [2, 3]
CCC(=O)OC(C)c1ccccc1 (stereo not shown) [1-phenylethyl propionate]	44	23	26	10	38														
CCC(=O)OCCOc1ccccc1 [2-phenoxyethyl propionate]	39	21	13	6	38														
O=C(OCCc1ccccc1)C1CCCCC1 [2-phenylethyl cyclohexanoate, 2-Phenylethyl Cyclohexanecarboxylate]	37	20	32	10	32	(49,000)	345	(34,500)	359	(12,100)	326	(47,300)	317	(10,400)	317				
O=C(OCCc1ccccc1)C1CC1 [2-phenylethyl cyclopropanoate, 2-Phenylethyl Cyclopropanecarboxylate]	42	24	27	16	39														
CC(C)(C)C(=O)OCCc1ccccc1 [2-phenylethyl neopentanoate]	38	19	28	5	29														
CCC(=O)OCCc1ccccc1 [2-phenylethyl propionate]	44	25	33	12	40														
CCCCCCCCOC(=O)OCCCCCCCC [dioctyl carbonate, reference compound]	29	13	10	7	16														
C12-15 alkyl benzoate [reference compound]						(43,800)	347	(33,400)	358	(9,260)	328	(117,000)	313	(22,000)	301	(40,800)	313	(9,310)	298

The remaining lines, values ahead:

Solubility of MBC in the solvent [1] [wt. %]	Solubility of E-517 (Avobenzone) in the solvent [1] [wt. %]	Solubility of BEMT in the solvent [1] [wt. %]	Solubility of EHT in the solvent [1] [wt. %]	Solubility of E-567 (Oxybenzone) in the solvent [1] [wt. %]	ε of BEMT at λmax ([2]; first (longer wavelength) band)	λmax of BEMT ([2]; first (longer wavelength) band)	ε of E-517 at λmax ([2]; first (longer wavelength) band)	λmax of E-517 ([2]; first (longer wavelength) band)	ε of E-567 at λmax ([2]; first (longer wavelength) band)	λmax of E-567 ([2]; first (longer wavelength) band)	ε of EHT at λmax [2, 3]	λmax of EHT [2, 3]	ε of MBC at λmax [2, 3]	λmax of MBC [2, 3] [nm]	ε of BEMT at λmax [2, 3]	λmax of BEMT [2, 3]	ε of E-567 at λmax [2, 3]	λmax of E-567 [2, 3]	Compound
34	17	18	4	25															CCCCC(CC)C(=O)OCCc1ccccc1 (stereo not shown) [2-phenylethyl 2-ethylhexanoate]
44	26	26	14	44															CC(=O)OCCc1ccccc1 [2-phenylethyl acetate]
36	19	23	8	27															CCCCCCCC(=O)OCCc1ccccc1 [2-phenylethyl octanoate]
41	22	27	10	35	(48,000)	345	(34,100)	359	(9,600)	327	(123,000)	312	(23,600)	298	(42,900)	312	(14,300)	287	CCCCC(=O)OCCc1ccccc1 [2-phenylethyl pentanoate, 2-Phenylethyl Pentanoate]
	24	32	10	39															CCCC(=O)OCc1ccccc1 [benzyl butyrate]
30	11	2	8	30															CC(O)C(=O)OCc1ccccc1 (stereo not shown) [benzyl lactate]
35	17	18	6	27															CCCCCCCCOC(=O)OCc1ccccc1 [benzyl octyl carbonate]
26	8	5	3	11															CC(C)CCCCCCCOC(=O)C(C)(C)C [isodecyl neopentanoate, reference compound]
